{
  "source": "patent US20210186880A1",
  "about": "“ORAL FORMULATIONS WITH INCREASED UPTAKE” (Brown University, priority 2018, published 2021)",
  "origin": "cited, not measured here",
  "key": {"[1]": {"biological_target": "T1, GLP-1 receptor (Homo sapiens, UniProt P43220)", "T1 sequence (P43220 24-463, species assumed)": "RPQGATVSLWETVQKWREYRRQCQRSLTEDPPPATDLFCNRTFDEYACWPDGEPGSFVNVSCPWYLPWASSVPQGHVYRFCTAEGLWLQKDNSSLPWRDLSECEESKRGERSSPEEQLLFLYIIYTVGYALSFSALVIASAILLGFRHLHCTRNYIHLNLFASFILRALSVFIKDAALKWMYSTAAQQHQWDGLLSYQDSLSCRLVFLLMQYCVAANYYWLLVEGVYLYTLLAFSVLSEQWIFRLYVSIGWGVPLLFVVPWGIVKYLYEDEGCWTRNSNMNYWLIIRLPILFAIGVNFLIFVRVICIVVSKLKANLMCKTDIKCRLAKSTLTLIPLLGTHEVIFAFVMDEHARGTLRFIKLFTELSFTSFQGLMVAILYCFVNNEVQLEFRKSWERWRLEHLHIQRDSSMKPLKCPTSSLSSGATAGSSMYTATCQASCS"}, "[2]": {"biological_target": "T1, GLP-1 receptor", "remark": "listed apart in the source"}, "[3]": {"conditions": "oral"}, "[4]": {"conditions": "in vivo"}},
  "note": "Read-outs that look alike come from different tables or passages of the source.",
  "data": [
    {"substance": "GLP-1(9-36)-NH2", "values": [
      {"measurement": "binding affinity compared to the intact peptide, lower", "setting": "[1]", "value": 100, "unit": "fold"},
      {"measurement": "agonistic activity, decrease", "setting": "[2]", "value": "> 10000", "unit": "fold"}
    ]},
    {"substance": "Glucagon-like peptide-1 [GLP-1]", "values": [
      {"measurement": "ghrelin secretion", "setting": "[3]", "value": "suppressed ghrelin secretion"},
      {"measurement": "insulin release", "setting": "[3]", "value": "potent effect on insulin release"},
      {"measurement": "plasma drug concentrations", "setting": "[3]; dose-escalating", "value": "rapid and dose-dependent increase in plasma drug concentrations"},
      {"measurement": "bioavailabilities", "setting": "[3]; doses of 0.5, 1.0, 2.0, and 4.0 mg", "value": "lower than 10%"},
      {"measurement": "mean absolute bioavailability", "setting": "[3]; relative to intravenous administration", "value": 4, "unit": "%"},
      {"measurement": "fasting and postprandial glucose values", "setting": "continuous 48-hour subcutaneous infusion, ~4-8 ng·kg^−1·min^−1", "value": "lowered fasting and postprandial glucose values"}
    ]},
    {"substance": "rGLP-1: rGLP-1 infused at 1.25-8.5 pmol/kg/min in a cited study", "values": [
      {"measurement": "fasting serum glucose decrease", "setting": "1.25 pmol/kg/min", "value": 22.7, "unit": "mg/dL"},
      {"measurement": "fasting serum glucose decrease", "setting": "2.5 pmol/kg/min", "value": 37.0, "unit": "mg/dL"},
      {"measurement": "fasting serum glucose decrease", "setting": "5.0 pmol/kg/min", "value": 53.9, "unit": "mg/dL"},
      {"measurement": "fasting serum glucose decrease", "setting": "8.5 pmol/kg/min", "value": 76.2, "unit": "mg/dL"}
    ]},
    {"substance": "semaglutide: GLP-1 analog acylated with a spacer and C-18 fatty di-acid chain", "values": [
      {"measurement": "plasma half-life", "setting": "[4]", "value": "long"}
    ]}
  ]
}
